# Test results reported in patent publication US20240215582A1, “METHODS OF CONTROLLING PLANT PATHOGENS” (Valent BioSciences LLC, priority 2022, published 2024).
# Where two headings read alike, the source gives them in different places. Marks after values point to notes of the source that are not given here.
# Tests used:
# [1] = tested on: Pseudoperonospora cubensis; assay: Foliar application, inoculated plants, disease severity; conditions: for Disease severity P. cubensis Oct. 20, 2020: carrier control severity 70; for Disease severity P. cubensis Oct. 27, 2020: carrier control severity 79; for Disease severity P. cubensis Jul. 28, 2020: carrier control severity 67; for Disease severity P. cubensis Jul. 21, 2020: carrier control severity 100
# Procedure: (§1) Biological efficacy assays utilizing cervinomycins were conducted on Pseudoperonospora cubensis and Botrytis cinerea. […] Once plants had dried they were inoculated with the pathogen, then were stored in a controlled climate chamber under high humidity for 4-6 days. At the end of the experiment disease severity was determined based on the percentage of plant tissue that was visually symptomatic.
# Phakopsora pachyrhizi = assay: Host plant efficacy assay (soybean); assay type: in vivo; conditions: in vivo
# Phytophthora infestans = assay type: in vivo
# Magnaporthe oryzae = assay type: in vivo
# Botrytis cinerea = assay: Foliar application, inoculated plants, disease severity; conditions: for Disease severity B. cinerea: carrier control severity 63.3; for percent control B. cinerea: vs carrier control
# Procedure: as §1
# Zymoseptoria tritici = assay: Host plant efficacy assay (wheat); assay type: in vivo; conditions: in vivo
# Erysiphe diffusa = assay: Host plant efficacy assay (soybean); assay type: in vivo; conditions: in vivo
# Podosphaera xanthii = assay: Host plant efficacy assay (cucumber); assay type: in vivo; conditions: in vivo
# Fusarium graminearum = assay type: cell-based
# Cochliobolus miyabeanus = assay: In vitro growth on cervinomycin-amended growth media; assay type: cell-based
# Pyrenophora teres = assay: Host plant efficacy assay (barley); assay type: in vivo; conditions: in vivo
# Plasmospora viticola = assay: Efficacy on grape plants infected with Plasmospora viticola; conditions: for % control Plasmospora viticola 1DAI: 1 day after infection; for % control Plasmospora viticola 1DAI / % control Plasmospora viticola 1DB1 / % control Plasmospora viticola 7DBI: grape plants; for % control Plasmospora viticola 1DB1: 1 day before infection; for % control Plasmospora viticola 7DBI: 7 days before infection
# Source text: Treatments occurred at either 1 day before infection (“1 DBI”), 7 days before infection (“7 DBI”) or 1 day after infection (“1 DAI”).
# [2] = 1 ppm foliar, vs carrier control
# [3] = 3 ppm foliar, vs carrier control
# [4] = 6 ppm foliar, vs carrier control
# [5] = 12 ppm foliar, vs carrier control
# [6] = 25 ppm foliar, vs carrier control
# [7] = 30 ppm foliar, vs carrier control
# [8] = 50 ppm foliar, vs carrier control
structure (smiles),measurement,setting,value
"COc1cc2oc3c(O)c4ccc5cc6c(c(O)c5c4c(O)c3c(=O)c2cc1OC)C(=O)N1CCOC1(C)C6 (centres unmarked) [Cervinomycin A1, cervinomycin A1]","Disease severity P. cubensis Oct. 20, 2020",[1]; 1 ppm foliar,13%
same,"Disease severity P. cubensis Oct. 27, 2020",[1]; 1 ppm foliar,2%
same,"percent control P. cubensis Oct. 20, 2020",[1]; [2],(81%)*
same,"percent control P. cubensis Oct. 27, 2020",[1]; [2],98%
same,"Disease severity P. cubensis Jul. 28, 2020",[1]; 3 ppm foliar,47%
same,"Disease severity P. cubensis Oct. 20, 2020",[1]; 3 ppm foliar,3%
same,"Disease severity P. cubensis Oct. 27, 2020",[1]; 3 ppm foliar,1%
same,"percent control P. cubensis Jul. 28, 2020",[1]; [3],30%
same,"percent control P. cubensis Oct. 20, 2020",[1]; [3],(96%)
same,"percent control P. cubensis Oct. 27, 2020",[1]; [3],99%
same,"Disease severity P. cubensis Oct. 20, 2020",[1]; 6 ppm foliar,2%
same,"Disease severity P. cubensis Oct. 27, 2020",[1]; 6 ppm foliar,1%
same,"percent control P. cubensis Oct. 20, 2020",[1]; [4],(97%)
same,"percent control P. cubensis Oct. 27, 2020",[1]; [4],99%
same,"Disease severity P. cubensis Jul. 28, 2020",[1]; 7.5 ppm foliar,43%
same,"percent control P. cubensis Jul. 28, 2020","[1]; 7.5 ppm foliar, vs carrier control",36%
same,"Disease severity P. cubensis Oct. 20, 2020",[1]; 12 ppm foliar,1%
same,"Disease severity P. cubensis Oct. 27, 2020",[1]; 12 ppm foliar,2%
same,"percent control P. cubensis Oct. 20, 2020",[1]; [5],(99%)
same,"percent control P. cubensis Oct. 27, 2020",[1]; [5],98%
same,"Disease severity P. cubensis Jul. 28, 2020",[1]; 15 ppm foliar,16%
same,"percent control P. cubensis Jul. 28, 2020","[1]; 15 ppm foliar, vs carrier control",76%
same,"Disease severity P. cubensis Oct. 20, 2020",[1]; 25 ppm foliar,1%
same,"Disease severity P. cubensis Oct. 27, 2020",[1]; 25 ppm foliar,1%
same,"percent control P. cubensis Oct. 20, 2020",[1]; [6],(99%)
same,"percent control P. cubensis Oct. 27, 2020",[1]; [6],99%
same,"Disease severity P. cubensis Jul. 28, 2020",[1]; 30 ppm foliar,7%
same,"Disease severity P. cubensis Jul. 14, 2020","[1]; 30 ppm foliar, carrier control severity 98",25%
same,"Disease severity P. cubensis Jul. 21, 2020",[1]; 30 ppm foliar,3%
same,"percent control P. cubensis Jul. 14, 2020",[1]; [7],74%
same,"percent control P. cubensis Jul. 21, 2020",[1]; [7],97%
same,"percent control P. cubensis Jul. 28, 2020",[1]; [7],89%
same,"Disease severity P. cubensis Oct. 20, 2020",[1]; 50 ppm foliar,0.4%
same,"Disease severity P. cubensis Oct. 27, 2020",[1]; 50 ppm foliar,1%
same,"percent control P. cubensis Oct. 20, 2020",[1]; [8],(99%)
same,"percent control P. cubensis Oct. 27, 2020",[1]; [8],99%
same,"Disease severity P. cubensis Jul. 21, 2020",[1]; 192 ppm foliar,3%
same,"percent control P. cubensis Jul. 21, 2020","[1]; 192 ppm foliar, vs carrier control",97%
same,control of Pseudoperonospora cubensis (summary of Table 3),[1]; foliar application,significant control
same,% control Phakopsora pachyrhizi Soybean 3DAI,Phakopsora pachyrhizi,0 (key: 5 (about 100%); 4 (about 90%); 3 (about 70%); 2 (about 50%); 1 (about 25%); 0 (about 0%))
same,% control Phytophthora infestans Tomato 1DBI,Phytophthora infestans; 11.3 ppm,0 (0 (about 0%))
same,% control Phytophthora infestans Tomato 1DBI,Phytophthora infestans; 45 ppm,0 (0 (about 0%))
same,% control Phytophthora infestans Tomato 1DBI,Phytophthora infestans; 180 ppm,3 (3 (about 70%))
same,% control Magnaporthe oryzae Rice 1DBI,Magnaporthe oryzae; 11.3 ppm,0 (0 (about 0%))
same,% control Magnaporthe oryzae Rice 1DBI,Magnaporthe oryzae; 45 ppm,0 (0 (about 0%))
same,% control Magnaporthe oryzae Rice 1DBI,Magnaporthe oryzae; 180 ppm,0 (0 (about 0%))
same,Disease severity B. cinerea,Botrytis cinerea; 1 ppm foliar,31%
same,percent control B. cinerea,Botrytis cinerea; 1 ppm foliar,(51%)
same,Disease severity B. cinerea,Botrytis cinerea; 3 ppm foliar,17%
same,percent control B. cinerea,Botrytis cinerea; 3 ppm foliar,(74%)
same,Disease severity B. cinerea,Botrytis cinerea; 6 ppm foliar,9%
same,percent control B. cinerea,Botrytis cinerea; 6 ppm foliar,(85%)
same,Disease severity B. cinerea,Botrytis cinerea; 12 ppm foliar,2%
same,percent control B. cinerea,Botrytis cinerea; 12 ppm foliar,(96%)
same,Disease severity B. cinerea,Botrytis cinerea; 25 ppm foliar,2%
same,percent control B. cinerea,Botrytis cinerea; 25 ppm foliar,(96%)
same,Disease severity B. cinerea,Botrytis cinerea; 50 ppm foliar,1%
same,percent control B. cinerea,Botrytis cinerea; 50 ppm foliar,(98%)
same,control of Botrytis cinerea (summary of Table 3),Botrytis cinerea; foliar application,significant control
same,% control Zymoseptoria tritici Wheat 3DAI,Zymoseptoria tritici,0 (key: 5 (about 100%); 4 (about 90%); 3 (about 70%); 2 (about 50%); 1 (about 25%); 0 (about 0%))
same,% control Zymoseptoria tritici Wheat 4DBI,Zymoseptoria tritici,0 (key: 5 (about 100%); 4 (about 90%); 3 (about 70%); 2 (about 50%); 1 (about 25%); 0 (about 0%))
same,% control Erysiphe diffusa Soybean 2DAI,Erysiphe diffusa,0 (key: 5 (about 100%); 4 (about 90%); 3 (about 70%); 2 (about 50%); 1 (about 25%); 0 (about 0%))
same,% control Podosphaera xanthii Cucumber 1DBI,Podosphaera xanthii,0 (key: 5 (about 100%); 4 (about 90%); 3 (about 70%); 2 (about 50%); 1 (about 25%); 0 (about 0%))
same,% Control Fusarium graminearum,Fusarium graminearum; 0.004 ppm in growth media,4%
same,% Control Fusarium graminearum,Fusarium graminearum; 0.016 ppm in growth media,6%
same,% Control Fusarium graminearum,Fusarium graminearum; 0.063 ppm in growth media,7%
same,% Control Fusarium graminearum,Fusarium graminearum; 0.25 ppm in growth media,20%
same,% Control Fusarium graminearum,Fusarium graminearum; 1 ppm in growth media,31%
same,% Control Cochliobolus miyabeanus,Cochliobolus miyabeanus; 0.004 ppm in growth media,1%
same,% Control Cochliobolus miyabeanus,Cochliobolus miyabeanus; 0.016 ppm in growth media,2%
same,% Control Cochliobolus miyabeanus,Cochliobolus miyabeanus; 0.063 ppm in growth media,29%
same,% Control Cochliobolus miyabeanus,Cochliobolus miyabeanus; 0.25 ppm in growth media,59%
same,% Control Cochliobolus miyabeanus,Cochliobolus miyabeanus; 1 ppm in growth media,74%
same,% control Pyrenophora teres Barley 1DBI,Pyrenophora teres,0 (key: 5 (about 100%); 4 (about 90%); 3 (about 70%); 2 (about 50%); 1 (about 25%); 0 (about 0%))
same,control of P. viticiola (summary of Table 1),Plasmospora viticola; 13-800 ppm,significant control
same,% control Plasmospora viticola 1DAI,Plasmospora viticola; 13 ppm,0%
same,% control Plasmospora viticola 1DB1,Plasmospora viticola; 13 ppm,100%
same,% control Plasmospora viticola 7DBI,Plasmospora viticola; 13 ppm,80%
same,% control Plasmospora viticola 1DAI,Plasmospora viticola; 50 ppm,0%
same,% control Plasmospora viticola 1DB1,Plasmospora viticola; 50 ppm,100%
same,% control Plasmospora viticola 1DAI,Plasmospora viticola; 200 ppm,0%
same,% control Plasmospora viticola 1DB1,Plasmospora viticola; 200 ppm,100%
same,% control Plasmospora viticola 7DBI,Plasmospora viticola; 200 ppm,100%
same,% control Plasmospora viticola 1DAI,Plasmospora viticola; 800 ppm,7%
same,% control Plasmospora viticola 1DB1,Plasmospora viticola; 800 ppm,100%
same,% control Plasmospora viticola 7DBI,Plasmospora viticola; 800 ppm,100%
